Reference: paper PMC2928807, “Chitin Synthases from Saprolegnia Are Involved in Tip Growth and Represent a Potential Target for Anti-Oomycete Drugs” (PLoS Pathogens, 2010)
One block for each molecule: values may come before it.

Key:
[1] = target: T1, SmCHS2 (chitin synthase 2) (Saprolegnia monoica, UniProt D7NQS9); experiment: radiometric chitin synthase assay ([…]-UDP-GlcNAc) on CHAPS membrane extract of recombinant Pichia; Dixon plots; assay type: biochemical
T1 construct: full-length SmCHS2 (962 amino acids) fused to eGFP at its C-terminus, expressed in Pichia pastoris, CHAPS extract of membranes
T1 sequence (D7NQS9 1-962): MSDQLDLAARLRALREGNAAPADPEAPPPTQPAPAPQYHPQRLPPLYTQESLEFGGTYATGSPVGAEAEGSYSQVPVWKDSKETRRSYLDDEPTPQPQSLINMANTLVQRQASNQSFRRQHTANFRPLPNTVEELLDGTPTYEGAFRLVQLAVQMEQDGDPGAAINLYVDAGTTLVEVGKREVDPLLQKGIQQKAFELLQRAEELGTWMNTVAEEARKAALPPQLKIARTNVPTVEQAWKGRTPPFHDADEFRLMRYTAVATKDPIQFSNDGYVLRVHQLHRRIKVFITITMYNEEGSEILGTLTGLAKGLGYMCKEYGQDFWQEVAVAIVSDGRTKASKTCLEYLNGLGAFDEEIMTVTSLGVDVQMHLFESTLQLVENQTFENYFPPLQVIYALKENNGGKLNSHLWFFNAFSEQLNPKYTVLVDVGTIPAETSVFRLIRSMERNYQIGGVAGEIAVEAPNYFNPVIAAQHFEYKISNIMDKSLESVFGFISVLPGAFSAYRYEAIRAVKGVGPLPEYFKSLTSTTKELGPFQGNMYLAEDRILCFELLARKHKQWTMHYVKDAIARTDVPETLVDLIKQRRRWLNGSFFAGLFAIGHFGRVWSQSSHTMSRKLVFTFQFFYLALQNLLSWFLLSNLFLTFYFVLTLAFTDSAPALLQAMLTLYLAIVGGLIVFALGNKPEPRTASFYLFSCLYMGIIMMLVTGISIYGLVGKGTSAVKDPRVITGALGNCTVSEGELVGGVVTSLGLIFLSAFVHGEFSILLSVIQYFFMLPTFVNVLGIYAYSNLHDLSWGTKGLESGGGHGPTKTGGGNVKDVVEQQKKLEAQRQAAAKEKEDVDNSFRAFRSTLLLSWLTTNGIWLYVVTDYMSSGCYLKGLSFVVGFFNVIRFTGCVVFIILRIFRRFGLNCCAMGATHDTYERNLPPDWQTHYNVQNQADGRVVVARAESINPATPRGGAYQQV

[2] = substrate: CC(=O)N[C@H]1[C@@H](OP(=O)(O)OP(=O)(O)OC[C@H]2O[C@@H](n3ccc(=O)[nH]c3=O)[C@H](O)[C@@H]2O)O[C@H](CO)[C@@H](O)[C@@H]1O; experiment: radiometric chitin synthase assay on CHAPS membrane extract of recombinant Pichia; apparent Km; assay type: biochemical, Saprolegnia monoica

Ki [1]: 4.6 µM
Molecule: C[C@@H]([C@H](N)C(=O)N[C@H](C(=O)O)[C@H]1O[C@@H](n2ccc(=O)[nH]c2=O)[C@H](O)[C@@H]1O)[C@H](O)c1ccc(O)cn1 [nikkomycin Z]

B1: SmCHS2 (chitin synthase 2) (Saprolegnia monoica) (protein)
chain: T1 sequence (D7NQS9 1-962)
notes: full-length SmCHS2 (962 amino acids) fused to eGFP at its C-terminus, expressed in Pichia pastoris, CHAPS extract of membranes
Km [2]: 150+12 µM
